Measured values reported in patent publication US11076594B2, “Pyrazolone compound or salt thereof, preparation method therefor, herbicide composition and use thereof” (QINGDAO KINGAGROOT CHEMICAL COMPOUNDS CO., LTD., priority 2015, dated 2021).

Assays:
Assay type in all cases: in vivo
wheat [1] = test: post-emergence stage experiment, crop (Table 1); details: post-emergence spray at 4-5 leaf stage, 250 g/ha active ingredient with 450 kg/ha water, rated after 3 weeks in greenhouse
Outline: (§1)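 Weed and crop seeds sown in soil-filled pots under 0.5-2 cm soil, greenhouse-grown, then sprayed at 4-5 leaf stage (2-3 weeks after sowing) with compound in acetone/Tween 80/water. Fresh weight growth control rate assessed after 3 weeks in greenhouse.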

wheat [2] = test: wheat field test, crop selectivity, greenhouse spray at 4 leaf stage; details: sprayed at 4 leaf stage, 4 weeks after treatment
Method: (§2) The activity level standard of harmful plant destruction (i.e. growth control rate) is as follows:
(§3) The above described growth control rate is fresh weight control rate.
(§4) The seeds of alopecurus japonicas, flixweed, shepherd's purse, corn gromwell, chickweed, beckmannia syzigachne, and annual ryegrass and wheat seeds were put into a plastic pot loaded with soil, and then covered with 0.5-2 cm soil, the seeds were allowed to grow in good greenhouse environment. The test plants were treated at 4 leaf stage 2-3 weeks after sowing. The test compounds of the present invention were dissolved in acetone respectively, then added with methyl oleate emulsion and diluted by certain amount of water to certain concentration. The solution was sprayed to the plant with a sprayer. Then the plants were cultured for 4 weeks in greenhouse.

alopecurus japonicas = test: wheat field resistant weed control, greenhouse spray at 4 leaf stage; design: key: Level 10: completely dead; Level 9: above 95% growth control rate; Level 8: above 90% growth control rate; Level 7: above 80% growth control rate; Level 6: above 70% growth control rate; Level 5: above 60% growth control rate; Level 4: above 50% growth control rate; Level 3: above 20% growth control rate; Level 2: 5%-20% growth control rate; Level 1: below 5% growth control rate; details: sprayed at 4 leaf stage, 4 weeks after treatment, resistant to ALS and ACCase inhibitor herbicides
Method: as §2, §3, §4

bidens bipinnata = test: weed control effect in post-emergence stage (Table 1); design: key: Level 10: completely dead; Level 9: above 95% growth control rate; Level 8: above 90% growth control rate; Level 7: above 80% growth control rate; Level 6: above 70% growth control rate; Level 5: above 60% growth control rate; Level 4: above 50% growth control rate; Level 3: above 20% growth control rate; Level 2: 5%-20% growth control rate; Level 1: below 5% growth control rate; details: post-emergence spray at 4-5 leaf stage, 250 g/ha active ingredient with 450 kg/ha water, rated after 3 weeks in greenhouse
Outline: as §1

Indian mallow = test: as above; design: key: Level 10: completely dead; Level 9: above 95% growth control rate; Level 8: above 90% growth control rate; Level 7: above 80% growth control rate; Level 6: above 70% growth control rate; Level 5: above 60% growth control rate; Level 4: above 50% growth control rate; Level 3: above 20% growth control rate; Level 2: 5%-20% growth control rate; Level 1: below 5% growth control rate; details: post-emergence spray at 4-5 leaf stage, 250 g/ha active ingredient with 450 kg/ha water, rated after 3 weeks in greenhouse
Outline: as §1

rorippa indica = test: as above; design: key: Level 10: completely dead; Level 9: above 95% growth control rate; Level 8: above 90% growth control rate; Level 7: above 80% growth control rate; Level 6: above 70% growth control rate; Level 5: above 60% growth control rate; Level 4: above 50% growth control rate; Level 3: above 20% growth control rate; Level 2: 5%-20% growth control rate; Level 1: below 5% growth control rate; details: post-emergence spray at 4-5 leaf stage, 250 g/ha active ingredient with 450 kg/ha water, rated after 3 weeks in greenhouse
Outline: as §1

foxtail = test: as above; design: key: Level 10: completely dead; Level 9: above 95% growth control rate; Level 8: above 90% growth control rate; Level 7: above 80% growth control rate; Level 6: above 70% growth control rate; Level 5: above 60% growth control rate; Level 4: above 50% growth control rate; Level 3: above 20% growth control rate; Level 2: 5%-20% growth control rate; Level 1: below 5% growth control rate; details: post-emergence spray at 4-5 leaf stage, 250 g/ha active ingredient with 450 kg/ha water, rated after 3 weeks in greenhouse
Outline: as §1

echinochloa = test: as above; design: key: Level 10: completely dead; Level 9: above 95% growth control rate; Level 8: above 90% growth control rate; Level 7: above 80% growth control rate; Level 6: above 70% growth control rate; Level 5: above 60% growth control rate; Level 4: above 50% growth control rate; Level 3: above 20% growth control rate; Level 2: 5%-20% growth control rate; Level 1: below 5% growth control rate; details: post-emergence spray at 4-5 leaf stage, 250 g/ha active ingredient with 450 kg/ha water, rated after 3 weeks in greenhouse
Outline: as §1

crab grass = test: as above; design: key: Level 10: completely dead; Level 9: above 95% growth control rate; Level 8: above 90% growth control rate; Level 7: above 80% growth control rate; Level 6: above 70% growth control rate; Level 5: above 60% growth control rate; Level 4: above 50% growth control rate; Level 3: above 20% growth control rate; Level 2: 5%-20% growth control rate; Level 1: below 5% growth control rate; details: post-emergence spray at 4-5 leaf stage, 250 g/ha active ingredient with 450 kg/ha water, rated after 3 weeks in greenhouse
Outline: as §1

rice = test: post-emergence stage experiment, crop (Table 1); details: post-emergence spray at 4-5 leaf stage, 250 g/ha active ingredient with 450 kg/ha water, rated after 3 weeks in greenhouse
Outline: as §1

corn = test: post-emergence stage experiment, crop (Table 1); details: post-emergence spray at 4-5 leaf stage, 250 g/ha active ingredient with 450 kg/ha water, rated after 3 weeks in greenhouse
Outline: as §1

| Compound | effect on crop, Wheat (level) (wheat [1]) | Wheat (activity level, crop damage) (wheat [2]; 2 g/mu) | Wheat (activity level, crop damage) (wheat [2]; 4 g/mu) | Wheat (activity level, crop damage) (wheat [2]; 8 g/mu) | Wheat (activity level, crop damage) (wheat [2]; 16 g/mu) | Wheat (activity level, crop damage) (wheat [2]; 32 g/mu) | Alopecurus japonicas weed controlling effect (activity level) (alopecurus japonicas; 1 g/mu) | Alopecurus japonicas weed controlling effect (activity level) (alopecurus japonicas; 2 g/mu) | Alopecurus japonicas weed controlling effect (activity level) (alopecurus japonicas; 4 g/mu) | Alopecurus japonicas weed controlling effect (activity level) (alopecurus japonicas; 8 g/mu) | weed control effect, Bidens bipinnata (level) (bidens bipinnata) | weed control effect, Indian mallow (level) (Indian mallow) | weed control effect, Rorippa indica (level) (rorippa indica) | weed control effect, Green foxtail (level) (foxtail) | weed control effect, Echinochloa (level) (echinochloa) | weed control effect, Crab grass (level) (crab grass) | effect on crop, Rice (level) (rice) | effect on crop, Corn (level) (corn) |
| --- | --- | --- | --- | --- | --- | --- | --- | --- | --- | --- | --- | --- | --- | --- | --- | --- | --- | --- |
| CCS(=O)(=O)Oc1c(C(=O)c2ccc(C(F)(F)F)c(N3CCCC3=O)c2Cl)c(C)nn1C [Compound 019] | 0 | 0 | 0 | 2 (Level 2: 5%-20% growth control rate) | 3 (Level 3: above 20% growth control rate) | 4 (Level 4: above 50% growth control rate) | 1 (Level 1: below 5% growth control rate) | 4 (Level 4: above 50% growth control rate) | 6 (Level 6: above 70% growth control rate) | 6 (Level 6: above 70% growth control rate) | 9 (Level 9: above 95% growth control rate) | 10 | 9 (Level 9: above 95% growth control rate) | 10 | 9 (Level 9: above 95% growth control rate) | 9 (Level 9: above 95% growth control rate) | 7 (Level 7: above 80% growth control rate) |  |
| COC(=O)Oc1c(C(=O)c2ccc(C(F)(F)F)c(N3CCCC3=O)c2Cl)c(C)nn1C [Compound 020] | 0 | 1 (Level 1: below 5% growth control rate) | 3 (Level 3: above 20% growth control rate) | 3 (Level 3: above 20% growth control rate) | 4 (Level 4: above 50% growth control rate) | 4 (Level 4: above 50% growth control rate) | 1 (Level 1: below 5% growth control rate) | 6 (Level 6: above 70% growth control rate) | 6 (Level 6: above 70% growth control rate) | 8 (Level 8: above 90% growth control rate) | 9 (Level 9: above 95% growth control rate) | 10 | 9 (Level 9: above 95% growth control rate) | 10 | 10 | 10 | 8 (Level 8: above 90% growth control rate) |  |
| CCOc1c(C(=O)Oc2c(C(=O)c3ccc(C(F)(F)F)c(N4CCCC4=O)c3Cl)c(C)nn2C)cnn1C [Compound 021] | 3 (Level 3: above 20% growth control rate) | 0 | 1 (Level 1: below 5% growth control rate) | 4 (Level 4: above 50% growth control rate) | 4 (Level 4: above 50% growth control rate) | 4 (Level 4: above 50% growth control rate) | 2 (Level 2: 5%-20% growth control rate) | 6 (Level 6: above 70% growth control rate) | 10 | 10 |  | 9 (Level 9: above 95% growth control rate) |  | 10 | 6 (Level 6: above 70% growth control rate) | 7 (Level 7: above 80% growth control rate) | 5 (Level 5: above 60% growth control rate) | 3 (Level 3: above 20% growth control rate) |
| CCOc1c(C(=O)Oc2c(C(=O)c3ccc(C(F)(F)F)c(N4CCCC4=O)c3Cl)c(C3CC3)nn2C)cnn1C [Compound 026] | 4 (Level 4: above 50% growth control rate) | 1 (Level 1: below 5% growth control rate) | 3 (Level 3: above 20% growth control rate) | 8 (Level 8: above 90% growth control rate) | 8 (Level 8: above 90% growth control rate) | 8 (Level 8: above 90% growth control rate) | 8 (Level 8: above 90% growth control rate) | 10 | 10 | 10 | 5 (Level 5: above 60% growth control rate) | 10 |  | 10 | 6 (Level 6: above 70% growth control rate) | 10 | 8 (Level 8: above 90% growth control rate) | 4 (Level 4: above 50% growth control rate) |
| CCn1nc(C2CC2)c(C(=O)c2ccc(C(F)(F)F)c(-n3cc(C)cn3)c2Cl)c1OC(=O)c1cn(C)nc1C [Compound 145] | 1 (Level 1: below 5% growth control rate) |  |  |  |  |  |  |  |  |  | 10 | 4 (Level 4: above 50% growth control rate) | 1 (Level 1: below 5% growth control rate) | 8 (Level 8: above 90% growth control rate) | 10 | 4 (Level 4: above 50% growth control rate) | 9 (Level 9: above 95% growth control rate) | 0 |
